Square brackets hold non-standard residues; d marks the D form. Peptide text beside a SMILES is read from it.

The values below come from patent US5840697A, “Peptide inhibitors of calmodulin” (Torrey Pines Institute for Molecular Studies, priority 1996, dated 1998).

The subject of experiment [1] is normal rat kidney (NRK) cells. Description: DNA synthesis ([3H]-thymidine incorporation) in cell culture. It is filed as cell-based. To be noted: added at 5 hr. Here is the method: Following the methods described in Lopez-Girona et al., Cell Calcium, 18:30-40 (1995), which is incorporated herein by reference, the effect of calmodulin inhibitory peptides on DNA synthesis was investigated. Specifically, peptides were added to culture media and assessed for their ability to inhibit the progression of normal rat kidney (NRK) cells into the S phase of the cell cycle; the DNA synthesis phase into the cell growth cycle. Such inhibition has been shown for existing anti-calmodulin drugs such as W13.
NRK cells were made quiescent by growing them to confluence in Dulbecco's minimum essential medium supplemented with 5% fetal calf serum (FCS), and then kept for 3-4 days in the same medium but with only 0.5% FCS. To allow them to re-enter the cell cycle, quiescent cells were trypsinized and subcultured at a lower density in fresh medium supplemented with 5% FCS.
DNA synthesis was analyzed by the measurement of [^3 H]-thymidine into whole cell DNA. NRK cells (10^5 per 35 mm plate) were pulse labeled for 1 hr with [methyl-^3 H]-thymidine (5 Ci/mmol) at 4 μCi/ml in Dulbecco's minimum essential medium supplemented with 5% FCS. Precipitation and solubilization of DNA was carried out as described in Cripps-Wolfman et al., J. Biol. Chem., 264:19478-19486 (1989), which is incorporated herein by reference.
The NRK cells stimulated to proliferate by addition of 5% FCS enter synchronously into the cell cycle and start the S phase after 12 hr reaching a maximum between 18 to 20 hr. The peptides were added at 5 hr (time at which the cells have already reenter the G1 phase). […] Similar results were found between the (D)-amino acid peptides and their (L)-counterpart.
(Uptake of a labelled nucleoside into DNA is a usual measure of proliferation.)

The next experiment deals with NRK cells. Description: long term stability: number of NRK cells at 48 hr after activation. It is filed as cell-based, rat. To be noted: added at 5 hr, counted 48 hr after activation. An excerpt: The similar activity found for the (L)-amino acid peptides and (D)-amino acid peptides indicate that the inhibition of calmodulin occurs rapidly following the addition of the inhibitory peptides. The peptides' long term stability was then studied by adding Ac-(D)Leu-(D)Trp-(D)Arg-(D)Ile-(D)Leu-(D)Trp-NH2, Ac-Leu-Trp-Arg-Ile-Leu-Trp-NH2 (SEQ ID No. 48), W13 and W12 at 5 hr following the reentry of the NRK cells into the cell cycle and measuring the number of cells at 48 hr after activation.

Consider `CC[C@@H](C)[C@@H](NC(=O)[C@@H](CCCNC(=N)N)NC(=O)[C@@H](Cc1c[nH]c2ccccc12)NC(=O)[C@@H](CC(C)C)NC(C)=O)C(=O)N[C@H](CC(C)C)C(=O)N[C@H](Cc1c[nH]c2ccccc12)C(N)=O` [Ac-(D)Leu-(D)Trp-(D)Arg-(D)Ile-(D)Leu-(D)Trp-NH2] (Ac-[dL][dW][dR][dI][dL][dW]-NH2), for which the “% DNA SYNTHESIS” value in experiment [1] (7.5 μM) was determined as 59%; in experiment [1] (15 μM), 25%. Also, the “number of cells relative to control cells” value with NRK cells is given as “significantly lower number of cells”.
